Measured values from patent US10253002B2, “Compounds and methods of treating infections” (Neoculi Pty Ltd., priority 2013, dated 2019).
Where “and” joins values, the source holds several entries; their conditions need not be identical. Equal entries are not always repeated.

How the values were obtained:
[1] = system: S. aureus isolates (HA-MRSA, CA-MRSA, methicillin-susceptible staphylococci); experiment: Kirby-Bauer disc diffusion resistotyping, Example 4; assay type: cell-based, Staphylococcus aureus; details: for Total isolates resistant (Kirby-Bauer disc diffusion): all isolates (n = 30)
Procedure: Antibiotic-susceptibility profiling of the isolate collection was undertaken using Kirby-Bauer disc diffusion, as recommended by the Clinical and Laboratory Standards Institute (CLSI) on Mueller-Hinton agar. Isolates were grown overnight on SBA at 37° C. Colonies were suspended in physiological saline. Turbidity was adjusted to a 0.5 McFarland standard and suspensions were spread over the medium. Antibiotic discs according to Table 9 below were transferred onto the inoculated medium and analysed after 24 h incubation at 37° C.

[2] = system: Staphylococcus pseudintermedius isolates (MSSP and MRSP); experiment: Disk diffusion and Epsilometer susceptibility testing, Example 6; assay type: cell-based
[3] = Methicillin-susceptible staphylococci (n = 10)

CC1=C(C(=O)O)N2C(=O)[C@@H](NC(=O)[C@H](N)c3ccccc3)[C@H]2SC1 [Cephalexin]
isolates resistant (Kirby-Bauer disc diffusion) ([1]; CA-MRSA (n = 10)): 20.00%
isolates resistant (Kirby-Bauer disc diffusion) ([1]; HA-MRSA (n = 10)): 80.00%
isolates resistant (Kirby-Bauer disc diffusion) [1, 3]: 10.00%
Total isolates resistant (Kirby-Bauer disc diffusion) [1]: 40.00%

CC1(C)S[C@@H]2[C@H](NC(=O)[C@H](N)c3ccc(O)cc3)C(=O)N2[C@H]1C(=O)O [amoxicillin]
MRSP isolates susceptible ([2]; 13 MRSP isolates): 23%

CC1(C)S[C@@H]2[C@H](NC(=O)Cc3ccccc3)C(=O)N2[C@H]1C(=O)O [Penicillin-G]
isolates resistant (Kirby-Bauer disc diffusion) ([1]; CA-MRSA (n = 10)): 100.00%
isolates resistant (Kirby-Bauer disc diffusion) ([1]; HA-MRSA (n = 10)): 100.00%
isolates resistant (Kirby-Bauer disc diffusion) [1, 3]: 50.00%
Total isolates resistant (Kirby-Bauer disc diffusion) [1]: 83.33%
Total isolates resistant (Kirby-Bauer disc diffusion) ([1]; listed as penicillin-G): 83.33%

CO[C@@]1(NC(=O)Cc2cccs2)C(=O)N2C(C(=O)O)=C(COC(N)=O)CS[C@@H]21 [cefoxitin]
MRSP isolates susceptible ([2]; 13 MRSP, cefoxitin resistance break point set at ≤30 mm): 7.7%
MRSP isolates susceptible ([2]; 13 MRSP, cefoxitin resistance breakpoint set at ≤24 mm): 23% and 38%
ZD ([2]; isolate S1P1): 0 mm
ZD, Adl ([2]; isolate S1P1): 0 mm
ZD ([2]; isolate S2P2): 21 mm
ZD, Adl ([2]; isolate S2P2): 21 mm
ZD ([2]; isolate S3P3): 21 mm
ZD, Adl ([2]; isolate S3P3): 24 mm
ZD ([2]; isolate S4P4): 29 mm
ZD, Adl ([2]; isolate S4P4): 20 mm
ZD ([2]; isolate S5P5): 26 mm
ZD, Adl ([2]; isolate S5P5): 30 mm
ZD ([2]; isolate S6P6): 22 mm
ZD, Adl ([2]; isolate S6P6): 26 mm
ZD ([2]; isolate S7P7): 21 mm
ZD, Adl ([2]; isolate S7P7): 19 mm
ZD ([2]; isolate S8P8): 21 mm
ZD, Adl ([2]; isolate S8P8): 22 mm
ZD ([2]; isolate S9P9): 23 mm
ZD, Adl ([2]; isolate S9P9): 26 mm
ZD ([2]; isolate S10P10): 21 mm
ZD, Adl ([2]; isolate S10P10): 25 mm
ZD ([2]; isolate S11P11): 22 mm
ZD, Adl ([2]; isolate S11P11): 21 mm
ZD ([2]; isolate S12P12): 24 mm
ZD, Adl ([2]; isolate S12P12): 24 mm
ZD ([2]; isolate S13P13): 36 mm
ZD, Adl ([2]; isolate S13P13): 40 mm
ZD ([2]; isolate S14P14): 34 mm
ZD, Adl ([2]; isolate S14P14): 32 mm
ZD ([2]; isolate S15P15): 33 mm
ZD, Adl ([2]; isolate S15P15): 34 mm
ZD ([2]; isolate S16P16): 38 mm
ZD, Adl ([2]; isolate S16P16): 42 mm
ZD ([2]; isolate S17P17): 36 mm
ZD, Adl ([2]; isolate S17P17): 38 mm
ZD ([2]; isolate S18P18): 25 mm
ZD, Adl ([2]; isolate S18P18): 40 mm
ZD ([2]; isolate S19P19): 36 mm
ZD, Adl ([2]; isolate S19P19): 38 mm
ZD ([2]; isolate S20P20): 38 mm
ZD, Adl ([2]; isolate S20P20): 36 mm
ZD ([2]; isolate S21P21): 36 mm
ZD, Adl ([2]; isolate S21P21): 40 mm
ZD ([2]; isolate S22P22): 34 mm
ZD, Adl ([2]; isolate S22P22): 35 mm
ZD ([2]; isolate S23P23): 29 mm
ZD, Adl ([2]; isolate S23P23): 26 mm

COc1c(N2C[C@@H]3CCCN[C@@H]3C2)c(F)cc2c(=O)c(C(=O)O)cn(C3CC3)c12 [moxifloxacin]
MRSP isolates susceptible ([2]; 13 MRSP isolates): 92%
